Laboratory results published in patent US20260317324A1, “BIFUNCTIONAL COMPOUNDS FOR DEGRADING BRAF VIA UBIQUITIN PROTEOSOME PATHWAY” (Nurix Therapeutics, Inc., priority 2023, published 2026).

Target: T1, BRAF V600E (Homo sapiens, UniProt P15056, V600E)
T1 construct: endogenous C-terminal HiBiT fusion tag on BRAF V600E allele; endogenous in cells; host or cells: A375 clone 1F10 (CRISPR-Cas9 knock-in of the HiBiT tag; parental A375 from ATCC)
Experiment: BRAF HiBiT degradation assay, C-terminal HiBiT-tagged BRAF V600E A375 cells (clone 1F10), Nano-Glo HiBiT Lytic assay
Format: cell-based
Settings: A375 (BRAF V600E); for DC50: DC50 at 50%: fitted conc. at Y=50; for Dmax: A-375, percentage protein degraded at maximal compound effect relative to DMSO
Outline: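 Using CRISPR-engineered A375 cells that carry a C-terminal HiBiT tag on endogenous BRAF V600E, remaining protein was quantified by lytic luminescence relative to DMSO-treated cells, with wildtype A375 as the background control. DC50 denotes the concentration giving 50% degradation.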

T1 sequence (P15056 whole entry V600E, the tested form may be a part): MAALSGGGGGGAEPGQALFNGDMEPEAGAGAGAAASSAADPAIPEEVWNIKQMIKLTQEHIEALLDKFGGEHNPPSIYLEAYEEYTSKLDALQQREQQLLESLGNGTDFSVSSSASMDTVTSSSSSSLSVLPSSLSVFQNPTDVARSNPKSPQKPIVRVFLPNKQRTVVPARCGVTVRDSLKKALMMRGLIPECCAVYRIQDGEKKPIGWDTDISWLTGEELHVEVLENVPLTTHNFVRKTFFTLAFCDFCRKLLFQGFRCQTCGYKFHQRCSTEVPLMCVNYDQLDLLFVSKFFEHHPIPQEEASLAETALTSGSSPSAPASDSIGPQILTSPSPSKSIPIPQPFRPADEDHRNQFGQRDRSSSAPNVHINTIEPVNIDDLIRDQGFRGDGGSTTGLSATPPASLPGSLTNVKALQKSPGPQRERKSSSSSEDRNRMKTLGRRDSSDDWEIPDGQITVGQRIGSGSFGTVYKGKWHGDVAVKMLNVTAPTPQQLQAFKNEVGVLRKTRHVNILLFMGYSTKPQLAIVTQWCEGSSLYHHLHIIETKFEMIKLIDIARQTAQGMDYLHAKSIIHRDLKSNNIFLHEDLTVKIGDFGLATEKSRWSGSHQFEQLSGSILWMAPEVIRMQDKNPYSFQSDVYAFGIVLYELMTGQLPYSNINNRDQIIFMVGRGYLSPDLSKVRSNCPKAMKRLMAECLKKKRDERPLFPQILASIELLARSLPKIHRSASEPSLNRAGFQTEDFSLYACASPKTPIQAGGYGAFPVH

Structure (SMILES) | DC50 [nM] | Dmax [%]
CCCS(=O)(=O)Nc1cccc(-c2nc(-c3ccc(C4CCN(C(=O)CC5CCN(c6ccc(NC7CCC(=O)NC7=O)cc6)CC5)CC4)cc3)sc2-c2ccnc(N)n2)c1F (racemic) [Compound 185, Rac-N-{3-[5-(2-aminopyrimidin-4-yl)-2-[4-(1-{2-[1-(4-{[(3R)-2,6-dioxopiperidin-3-yl]amino}phenyl)piperidin-4-yl]acetyl}piperidin-4-yl)phenyl]-1,3-thiazol-4-yl]-2-fluorophenyl}propane-1-sulfonamide] | 10 to 50 | 30 to 70
CCCS(=O)(=O)Nc1cccc(-c2nc(-c3ccc(N4CCN(C(=O)C5CCN(c6ccc(C7CCC(=O)NC7=O)cn6)CC5)CC4)cc3)sc2-c2ccnc(N)n2)c1F (racemic) [Compound 188, Rac-N-{3-[5-(2-aminopyrimidin-4-yl)-2-{4-[4-(1-{5-[(3R)-2,6-dioxopiperidin-3-yl]pyridin-2-yl}piperidine-4-carbonyl)piperazin-1-yl]phenyl}-1,3-thiazol-4-yl]-2-fluorophenyl}propane-1-sulfonamide] | < 10 | > 70
CCCS(=O)(=O)Nc1cccc(-c2nc(-c3ccc(N4CCN(C(=O)CC5CCN(c6ccc(C7CCC(=O)NC7=O)cn6)CC5)CC4)cc3)sc2-c2ccnc(N)n2)c1F (racemic) [Compound 189, Rac-N-{3-[5-(2-aminopyrimidin-4-yl)-2-(4-{4-[2-(1-{5-[(3R)-2,6-dioxopiperidin-3-yl]pyridin-2-yl}piperidin-4-yl)acetyl]piperazin-1-yl}phenyl)-1,3-thiazol-4-yl]-2-fluorophenyl}propane-1-sulfonamide] | < 10 | > 70
CCCS(=O)(=O)Nc1cccc(-c2nc(-c3ccc(N4CCN(C(=O)C5CCN(c6ccc(C7CCC(=O)NC7=O)cc6)CC5)CC4)cc3)sc2-c2ccnc(N)n2)c1F (racemic) [Compound 190, Rac-N-{3-[5-(2-aminopyrimidin-4-yl)-2-{4-[4-(1-{4-[(3R)-2,6-dioxopiperidin-3-yl]phenyl}piperidine-4-carbonyl)piperazin-1-yl]phenyl}-1,3-thiazol-4-yl]-2-fluorophenyl}propane-1-sulfonamide] | 10 to 50 | 30 to 70
CCCS(=O)(=O)Nc1cccc(-c2nc(C3CCN(C(=O)C4(C)CCN(C(=O)C5CCN(c6ccc(C7CCC(=O)NC7=O)cc6)CC5)CC4)CC3)sc2-c2ccnc(N)n2)c1F (racemic) [Compound 196, Rac-N-{3-[5-(2-aminopyrimidin-4-yl)-2-{1-[1-(1-{4-[(3R)-2,6-dioxopiperidin-3-yl]phenyl}piperidine-4-carbonyl)-4-methylpiperidine-4-carbonyl]piperidin-4-yl}-1,3-thiazol-4-yl]-2-fluorophenyl}propane-1-sulfonamide] | < 10 | > 70
CCCS(=O)(=O)Nc1cccc(-c2nc(C3CCN(C(=O)C4CCN(C(=O)C5CCN(c6ccc(C7CCC(=O)NC7=O)cc6)CC5)CC4)CC3)sc2-c2ccncn2)c1F (racemic) [Compound 199, Rac-N-[3-(2-{1-[1-(1-{4-[(3R)-2,6-dioxopiperidin-3-yl]phenyl}piperidine-4-carbonyl)piperidine-4-carbonyl]piperidin-4-yl}-5-(pyrimidin-4-yl)-1,3-thiazol-4-yl)-2-fluorophenyl]propane-1-sulfonamide] | < 10 | > 70
CCCS(=O)(=O)Nc1cccc(-c2nc(-c3ccc(C4CCN(C(=O)C5CCN(c6ccc(C7CCC(=O)NC7=O)cn6)CC5)CC4)cc3)sc2-c2ccnc(N)n2)c1F (racemic) [Compound 201, Rac-N-{3-[5-(2-aminopyrimidin-4-yl)-2-{4-[1-(1-{5-[(3R)-2,6-dioxopiperidin-3-yl]pyridin-2-yl}piperidine-4-carbonyl)piperidin-4-yl]phenyl}-1,3-thiazol-4-yl]-2-fluorophenyl}propane-1-sulfonamide] | 10 to 50 | 30 to 70
CCCS(=O)(=O)Nc1cccc(-c2nc(C3CCN(CC4CCN(C(=O)CC5CCN(c6ccc(C7CCC(=O)NC7=O)cn6)CC5)CC4)CC3)sc2-c2ccnc(N)n2)c1F (racemic) [Compound 202, Rac-N-{3-[5-(2-aminopyrimidin-4-yl)-2-[1-({1-[2-(1-{5-[(3R)-2,6-dioxopiperidin-3-yl]pyridin-2-yl}piperidin-4-yl)acetyl]piperidin-4-yl}methyl)piperidin-4-yl]-1,3-thiazol-4-yl]-2-fluorophenyl}propane-1-sulfonamide] | < 10 | > 70
CCCS(=O)(=O)Nc1cccc(-c2nc(C3CCN(C4CN(C(=O)CC5(O)CCN(c6ccc(NC7CCC(=O)NC7=O)cc6F)CC5)C4)CC3)sc2-c2ccnc(N)n2)c1F (racemic) [Compound 214, Rac-N-{3-[5-(2-aminopyrimidin-4-yl)-2-[1-(1-{2-[1-(4-{[(3R)-2,6-dioxopiperidin-3-yl]amino}-2-fluorophenyl)-4-hydroxypiperidin-4-yl]acetyl}azetidin-3-yl)piperidin-4-yl]-1,3-thiazol-4-yl]-2-fluorophenyl}propane-1-sulfonamide] | 10 to 50 | 30 to 70
CCCS(=O)(=O)Nc1cccc(-c2nc(C3CCN(C(=O)C4CCN(C(=O)C5CCN(c6ccc(C7CCC(=O)NC7=O)cc6)CC5)CC4)CC3)sc2-c2ccnc(N)n2)c1F (racemic) [Compound 216, Rac-N-{3-[5-(2-aminopyrimidin-4-yl)-2-{1-[1-(1-{4-[(3R)-2,6-dioxopiperidin-3-yl]phenyl}piperidine-4-carbonyl)piperidine-4-carbonyl]piperidin-4-yl}-1,3-thiazol-4-yl]-2-fluorophenyl}propane-1-sulfonamide] | < 10 | > 70
CCCS(=O)(=O)Nc1cccc(-c2nc(C3(C)CCN(C(=O)C4CCN(CC5CCN(c6ccc(C7CCC(=O)NC7=O)cn6)CC5)CC4)CC3)sc2-c2ccnc(N)n2)c1F (racemic) [Compound 218, Rac-N-{3-[5-(2-aminopyrimidin-4-yl)-2-(1-{1-[(1-{5-[(3R)-2,6-dioxopiperidin-3-yl]pyridin-2-yl}piperidin-4-yl)methyl]piperidine-4-carbonyl}-4-methylpiperidin-4-yl)-1,3-thiazol-4-yl]-2-fluorophenyl}propane-1-sulfonamide] | 50 to 500 | > 70
CCCS(=O)(=O)Nc1cccc(-c2nc(C3CCC4(CC3)CCN(C(=O)CN3CCN(CCCc5cccc6c5C(=O)N(C5CCC(=O)NC5=O)C6=O)CC3)CC4)sc2-c2ccnc(N)n2)c1F (racemic) [Compound 229, Rac-N-{3-[5-(2-aminopyrimidin-4-yl)-2-(3-{2-[4-(3-{2-[(3R)-2,6-dioxopiperidin-3-yl]-1,3-dioxo-2,3-dihydro-1H-isoindol-4-yl}propyl)piperazin-1-yl]acetyl}-3-azaspiro[5.5]undecan-9-yl)-1,3-thiazol-4-yl]-2-fluorophenyl}propane-1-sulfonamide] | > 500 | 30 to 70

Now from value to molecule:

DC50 [nM] | Dmax [%] | Structure (SMILES)
< 10 | > 70 | CCCS(=O)(=O)Nc1cccc(-c2nc(C3CCN(CC4CCN(C(=O)C5CCN(c6ccc(C7CCC(=O)NC7=O)cn6)CC5)CC4)CC3)sc2-c2ccnc(N)n2)c1F (racemic) [Compound 213, Rac-N-{3-[5-(2-aminopyrimidin-4-yl)-2-(1-{[1-(1-{5-[(3R)-2,6-dioxopiperidin-3-yl]pyridin-2-yl}piperidine-4-carbonyl)piperidin-4-yl]methyl}piperidin-4-yl)-1,3-thiazol-4-yl]-2-fluorophenyl}propane-1-sulfonamide]
> 500 | 30 to 70 | CCCS(=O)(=O)Nc1cccc(-c2nc(C3CCN(C(=O)[C@H]4CC[C@H](CN5CCc6cc(C7CCC(=O)NC7=O)ccc6C5)CC4)CC3)sc2-c2ccnc(N)n2)c1F (mixture of isomers) [Compound 222, N-{3-[5-(2-aminopyrimidin-4-yl)-2-{1-[(1r,4r)-4-({6-[(3RS)-2,6-dioxopiperidin-3-yl]-1,2,3,4-tetrahydroisoquinolin-2-yl}methyl)cyclohexanecarbonyl]piperidin-4-yl}-1,3-thiazol-4-yl]-2-fluorophenyl}propane-1-sulfonamide]
50 to 500 | 30 to 70 | CCCS(=O)(=O)Nc1cccc(-c2nc(C3CCN(CC4CCN(C(=O)[C@H]5CC[C@H](Oc6cccc(C7CCC(=O)NC7=O)c6)CC5)CC4)CC3)sc2-c2ccnc(N)n2)c1F (mixture of isomers) [Compound 223, N-{3-[5-(2-aminopyrimidin-4-yl)-2-[1-({1-[(1r,4r)-4-{3-[(3RS)-2,6-dioxopiperidin-3-yl]phenoxy}cyclohexanecarbonyl]piperidin-4-yl}methyl)piperidin-4-yl]-1,3-thiazol-4-yl]-2-fluorophenyl}propane-1-sulfonamide]
50 to 500 | 30 to 70 | CCCS(=O)(=O)Nc1cccc(-c2nc(C3CCN(CC4CCN(C(=O)CN5CCc6cc(C7CCC(=O)NC7=O)ccc6C5)CC4)CC3)sc2-c2ccnc(N)n2)c1F (racemic) [Compound 226, Rac-N-{3-[5-(2-aminopyrimidin-4-yl)-2-(1-{[1-(2-{6-[(3R)-2,6-dioxopiperidin-3-yl]-1,2,3,4-tetrahydroisoquinolin-2-yl}acetyl)piperidin-4-yl]methyl}piperidin-4-yl)-1,3-thiazol-4-yl]-2-fluorophenyl}propane-1-sulfonamide]
< 10 | > 70 | CCCS(=O)(=O)Nc1cccc(-c2nc(C3CCN(C(=O)C4CCN(CC5CCN(c6ccc(C7CCC(=O)NC7=O)cc6)CC5)CC4)CC3)sc2-c2ccnc(N)n2)c1F (racemic) [Compound 228, Rac-N-{3-[5-(2-aminopyrimidin-4-yl)-2-(1-{1-[(1-{4-[(3R)-2,6-dioxopiperidin-3-yl]phenyl}piperidin-4-yl)methyl]piperidine-4-carbonyl}piperidin-4-yl)-1,3-thiazol-4-yl]-2-fluorophenyl}propane-1-sulfonamide]
